Experimental data reported in PubChem BioAssay (NCI).
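Protocol summary: plate cells (96-well), add compound at 5 concentrations, incubate 48 h, interpolate endpoints linearly. GI50: concentration for 50% inhibition of growth. Definition used: TGI = concentration required for complete inhibition of growth.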

Experiments:
Assay in all cases: growth of human tumour cells (NCI), 48 h
786-0 renal = tested on: 786-0 renal
A498 renal = tested on: A498 renal
A549 NSCLC = tested on: A549 NSCLC
ACHN renal = tested on: ACHN renal
BT-549 breast = tested on: BT-549 breast
CAKI-1 renal = tested on: CAKI-1 renal
CCRF-CEM leukemia = tested on: CCRF-CEM leukemia
COLO 205 colon = tested on: COLO 205 colon
DU-145 prostate = tested on: DU-145 prostate
HCC-2998 colon = tested on: HCC-2998 colon
HCT-116 colon = tested on: HCT-116 colon
HCT-15 colon = tested on: HCT-15 colon
HL-60(TB) leukemia = tested on: HL-60(TB) leukemia
HOP-62 NSCLC = tested on: HOP-62 NSCLC
HS 578T breast = tested on: HS 578T breast
HT29 colon = tested on: HT29 colon
IGROV1 ovarian = tested on: IGROV1 ovarian
K-562 leukemia = tested on: K-562 leukemia
KM12 colon = tested on: KM12 colon
LOX IMVI melanoma = tested on: LOX IMVI melanoma
M14 melanoma = tested on: M14 melanoma
MALME-3M melanoma = tested on: MALME-3M melanoma
MCF7 breast = tested on: MCF7 breast
MDA-MB-231 breast = tested on: MDA-MB-231 breast
MDA-MB-435 = tested on: MDA-MB-435
MOLT-4 leukemia = tested on: MOLT-4 leukemia
NCI-H226 lung = tested on: NCI-H226 lung
NCI-H23 lung = tested on: NCI-H23 lung
NCI-H460 lung = tested on: NCI-H460 lung
NCI-H522 lung = tested on: NCI-H522 lung
NCI/ADR-RES ovarian = tested on: NCI/ADR-RES ovarian
OVCAR-3 ovarian = tested on: OVCAR-3 ovarian
OVCAR-4 ovarian = tested on: OVCAR-4 ovarian
OVCAR-5 ovarian = tested on: OVCAR-5 ovarian
OVCAR-8 ovarian = tested on: OVCAR-8 ovarian
PC-3 prostate = tested on: PC-3 prostate
RPMI-8226 leukemia = tested on: RPMI-8226 leukemia
RXF 393 renal = tested on: RXF 393 renal
SF-268 CNS = tested on: SF-268 CNS
SF-295 CNS = tested on: SF-295 CNS
SF-539 CNS = tested on: SF-539 CNS
SK-MEL-2 melanoma = tested on: SK-MEL-2 melanoma
SK-MEL-28 melanoma = tested on: SK-MEL-28 melanoma
SK-MEL-5 melanoma = tested on: SK-MEL-5 melanoma
SK-OV-3 ovarian = tested on: SK-OV-3 ovarian
SN12C renal = tested on: SN12C renal
SNB-19 CNS = tested on: SNB-19 CNS
SNB-75 CNS = tested on: SNB-75 CNS
SR leukemia = tested on: SR leukemia
SW-620 colon = tested on: SW-620 colon
T-47D breast = tested on: T-47D breast
TK-10 renal = tested on: TK-10 renal
U251 CNS = tested on: U251 CNS
UACC-257 melanoma = tested on: UACC-257 melanoma
UACC-62 melanoma = tested on: UACC-62 melanoma
UO-31 renal = tested on: UO-31 renal

COc1cc(F)c(F)cc1C(=O)c1cnc(NC2CCN(S(C)(=O)=O)CC2)nc1N
GI50 (786-0 renal): 5.93 µM | TGI (786-0 renal): > 25 µM | GI50 (A498 renal): 4.62 µM | TGI (A498 renal): 11.9 µM | GI50 (A549 NSCLC): 3.18 µM | TGI (A549 NSCLC): > 25 µM | GI50 (ACHN renal): 3.19 µM | TGI (ACHN renal): > 23.6 µM | GI50 (BT-549 breast): 4.29 µM | TGI (BT-549 breast): 18.6 µM | GI50 (CAKI-1 renal): 3.79 µM | TGI (CAKI-1 renal): > 25 µM | GI50 (CCRF-CEM leukemia): 4.86 µM | TGI (CCRF-CEM leukemia): 18.8 µM | GI50 (COLO 205 colon): 2.42 µM | TGI (COLO 205 colon): 6.14 µM | GI50 (DU-145 prostate): 5.66 µM | TGI (DU-145 prostate): > 21.6 µM | GI50 (HCC-2998 colon): 4.32 µM | TGI (HCC-2998 colon): > 25 µM | GI50 (HCT-116 colon): 2.16 µM | TGI (HCT-116 colon): > 25 µM | GI50 (HCT-15 colon): 3.46 µM | TGI (HCT-15 colon): > 25 µM | GI50 (HL-60(TB) leukemia): 2.01 µM | TGI (HL-60(TB) leukemia): 10 µM | GI50 (HOP-62 NSCLC): 6.17 µM | TGI (HOP-62 NSCLC): > 22.2 µM | GI50 (HS 578T breast): 4.71 µM | TGI (HS 578T breast): > 21.8 µM | GI50 (HT29 colon): 3.7 µM | TGI (HT29 colon): > 25 µM | GI50 (IGROV1 ovarian): 5.11 µM | TGI (IGROV1 ovarian): 24.5 µM | GI50 (K-562 leukemia): 7.29 µM | TGI (K-562 leukemia): > 25 µM | GI50 (KM12 colon): 3.12 µM | TGI (KM12 colon): > 22.4 µM | GI50 (LOX IMVI melanoma): 3.16 µM | TGI (LOX IMVI melanoma): > 20.7 µM | GI50 (M14 melanoma): 4.73 µM | TGI (M14 melanoma): > 25 µM | GI50 (MALME-3M melanoma): 2.78 µM | TGI (MALME-3M melanoma): 24.2 µM | GI50 (MCF7 breast): 0.76 µM | TGI (MCF7 breast): > 25 µM | GI50 (MDA-MB-231 breast): 3.04 µM | TGI (MDA-MB-231 breast): > 25 µM | GI50 (MDA-MB-435): 3.55 µM | TGI (MDA-MB-435): > 25 µM | GI50 (MOLT-4 leukemia): 3.4 µM | TGI (MOLT-4 leukemia): 20.4 µM | GI50 (NCI-H226 lung): 3.1 µM | TGI (NCI-H226 lung): 22 µM | GI50 (NCI-H23 lung): 2.62 µM | TGI (NCI-H23 lung): > 18 µM | GI50 (NCI-H460 lung): 1.16 µM | TGI (NCI-H460 lung): 24.3 µM | GI50 (NCI-H522 lung): 4.67 µM | TGI (NCI-H522 lung): > 25 µM | GI50 (NCI/ADR-RES ovarian): 6.48 µM | TGI (NCI/ADR-RES ovarian): > 25 µM | GI50 (OVCAR-3 ovarian): 4.48 µM | TGI (OVCAR-3 ovarian): 15.7 µM | GI50 (OVCAR-4 ovarian): 6.4 µM | TGI (OVCAR-4 ovarian): > 25 µM | GI50 (OVCAR-5 ovarian): 2.62 µM | TGI (OVCAR-5 ovarian): > 23.1 µM | GI50 (OVCAR-8 ovarian): 4.43 µM | TGI (OVCAR-8 ovarian): > 25 µM | GI50 (PC-3 prostate): 2 µM | TGI (PC-3 prostate): > 25 µM | GI50 (RPMI-8226 leukemia): 3.66 µM | TGI (RPMI-8226 leukemia): > 16.2 µM | GI50 (RXF 393 renal): 3.01 µM | TGI (RXF 393 renal): 7.18 µM | GI50 (SF-268 CNS): 5.65 µM | TGI (SF-268 CNS): 20 µM | GI50 (SF-295 CNS): 2.9 µM | TGI (SF-295 CNS): 23.7 µM | GI50 (SF-539 CNS): 3.85 µM | TGI (SF-539 CNS): 11.1 µM | GI50 (SK-MEL-2 melanoma): 3.86 µM | TGI (SK-MEL-2 melanoma): 12.6 µM | GI50 (SK-MEL-28 melanoma): 4.08 µM | TGI (SK-MEL-28 melanoma): > 25 µM | GI50 (SK-MEL-5 melanoma): 2.07 µM | TGI (SK-MEL-5 melanoma): > 14.4 µM | GI50 (SK-OV-3 ovarian): 10 µM | TGI (SK-OV-3 ovarian): > 25 µM | GI50 (SN12C renal): 4.49 µM | TGI (SN12C renal): > 25 µM | GI50 (SNB-19 CNS): 2.32 µM | TGI (SNB-19 CNS): > 25 µM | GI50 (SNB-75 CNS): 3.83 µM | TGI (SNB-75 CNS): 10.9 µM | GI50 (SR leukemia): 1.23 µM | TGI (SR leukemia): 10.2 µM | GI50 (SW-620 colon): 1.27 µM | TGI (SW-620 colon): 24.8 µM | GI50 (T-47D breast): 4.58 µM | TGI (T-47D breast): 23.8 µM | GI50 (TK-10 renal): 2.92 µM | TGI (TK-10 renal): 19.3 µM | GI50 (U251 CNS): 2.42 µM | TGI (U251 CNS): 24.8 µM | GI50 (UACC-257 melanoma): 3.56 µM | TGI (UACC-257 melanoma): > 22.7 µM | GI50 (UACC-62 melanoma): 3.13 µM | TGI (UACC-62 melanoma): 7.63 µM | GI50 (UO-31 renal): 4.75 µM | TGI (UO-31 renal): > 19.8 µM
